Where “and” joins values, the source holds several entries; their conditions need not be identical. Equal entries are not always repeated. Where two headings read alike, the source gives them in different places.
Tests used:
[1] = system: tbaqp2/tbaqp3 null cells expressing TbAQP2 L118W; assay: microbe, parasite or virus in culture; assay type: cell-based, Trypanosoma brucei brucei
TbAQP2/HAPT1 [2] = target: T1, TbAQP2/HAPT1 (Trypanosoma brucei brucei, UniProt Q6ZXT3); assay: cell-based; assay type: cell-based
[3] = system: tbaqp2/tbaqp3 null cells expressing TbAQP2WT; assay: microbe, parasite or virus in culture; assay type: cell-based, Trypanosoma brucei brucei
TbAQP2 L84W = TbAQP2 L84W (Trypanosoma brucei brucei, UniProt Q6ZXT3, L84W); assay: [3H]-pentamidine transport; assay type: cell-based; settings: AQP2 mutant L84W; n=5
tbaqp2 null (AQP2-KO) = assay: Drug sensitivity assay (resazurin); assay type: cell-based; settings: Trypanosoma brucei, read-out: EC50 AQP2-KO AVG, AQP2-KO / tbaqp2 null; 48 h drug + 24 h resazurin
TbAQP3 = TbAQP3 (Trypanosoma brucei brucei, UniProt Q6ZXT2); assay type: cell-based
[4] = system: tbaqp2/tbaqp3 null cells expressing TbAQP2 L84M; assay: microbe, parasite or virus in culture; assay type: cell-based, Trypanosoma brucei brucei; settings: Trypanosoma brucei
HAPT = settings: cited from earlier work
[5] = system: tbaqp2/tbaqp3 null cells expressing TbAQP2^L258Y; assay type: cell-based, Trypanosoma brucei brucei
TbAQP2 L218M = TbAQP2 L218M (Trypanosoma brucei brucei, UniProt Q6ZXT3, L218M); assay: [3H]-pentamidine transport; assay type: cell-based; settings: AQP2 mutant L218M; n=3
3×HA tagged TbAQP2 = target: T2, 3×HA tagged TbAQP2 (Trypanosoma brucei brucei, UniProt Q6ZXT3); assay type: cell-based
T2 construct: expressed in transfected cells; host or cells: T. brucei 2T1 bloodstream forms, tetracycline-induced

[6] = system: tbaqp2/tbaqp3 null cells expressing TbAQP2 L218M; assay: microbe, parasite or virus in culture; assay type: cell-based, Trypanosoma brucei brucei; settings: Trypanosoma brucei
TbAQP2^I190T/W192G = TbAQP2^I190T/W192G (Trypanosoma brucei brucei, UniProt Q6ZXT3, I190T/W192G); assay type: cell-based; settings: Fig. 3A, exp AQP016-AQP023; AQP2 mutant I190T/W192G
[7] = system: tbaqp2/tbaqp3 null cells expressing TbAQP3; assay type: cell-based, Trypanosoma brucei brucei
[8] = system: tbaqp2/tbaqp3 null cells expressing TbAQP2^L84W/L118W; assay: Drug sensitivity assay (resazurin); assay type: cell-based, Trypanosoma brucei brucei; settings: Fig. 4A, L84W/L118W in aqp2/aqp3 null, read-out: Alamar blue EC50, single repeats
TbAQP2 L118M = TbAQP2 L118M (Trypanosoma brucei brucei, UniProt Q6ZXT3, L118M); assay: [3H]-pentamidine transport; assay type: cell-based; settings: AQP2 mutant L118M
TbAQP2^L84W/L118W = TbAQP2^L84W/L118W (Trypanosoma brucei brucei, UniProt Q6ZXT3, L118W/L84W); assay: [3H]-pentamidine transport; assay type: cell-based; settings: AQP2 mutant L84W/118W; n=3
CRK12 RNAi cells = assay: [3H]-pentamidine transport after CRK12 RNAi induction (endocytosis defect); assay type: cell-based, Trypanosoma brucei
[9] = system: tbaqp2/tbaqp3 null cells expressing TbAQP2 L84W; assay: microbe, parasite or virus in culture; assay type: cell-based, Trypanosoma brucei brucei
TbAQP2 L218W = TbAQP2 L218W (Trypanosoma brucei brucei, UniProt Q6ZXT3, L218W); assay: [3H]-pentamidine transport; assay type: cell-based; settings: AQP2 mutant L218W; n=4
TbAQP2^I190T = assay: cell-based; design: species or system Trypanosoma brucei brucei; settings: TbAQP2^I190T cells; read-out: Km of lower affinity segment (LAPT1)
T. b. brucei 2T1 = assay type: cell-based, Trypanosoma brucei brucei
[10] = system: tbaqp1-2-3 null cells expressing TbAQP2WT; assay: Drug sensitivity assay (resazurin), pentamidine and SHAM; assay type: cell-based, Trypanosoma brucei brucei; settings: Trypanosoma brucei, +AQP2 W.T in aqp1-3 triple KO; 3 repeats; read-out: Alamar blue EC50, MEAN
TbAQP3^W102I/R256L = TbAQP3^W102I/R256L (Trypanosoma brucei brucei, UniProt Q6ZXT2, R256L/W102I); assay: [3H]-pentamidine transport; assay type: cell-based; settings: AQP3 W102I/R256L; over 30 minutes
TbAQP2/HAPT1 [11] = target: T1, TbAQP2/HAPT1; settings: cited from earlier work
TbAQP3^W102I/R256L/Y250L = TbAQP3^W102I/R256L/Y250L (Trypanosoma brucei brucei, UniProt Q6ZXT2, R256L/W102I/Y250L); assay: [3H]-pentamidine transport; assay type: cell-based; settings: AQP3 W102I/R256L/Y250L; over 30 minutes
tbaqp2/tbaqp3 null cells = assay: microbe, parasite or virus in culture; assay type: cell-based, Trypanosoma brucei brucei
[12] = Trypanosoma brucei, read-out: Alamar blue EC50, MEAN
[13] = Trypanosoma brucei, read-out: Alamar blue EC50, single repeats
[14] = Trypanosoma brucei, read-out: EC50 AVG
[15] = read-out: Alamar blue EC50, single repeats
[16] = read-out: Alamar blue EC50, MEAN

T1 sequence (Q6ZXT3 whole entry): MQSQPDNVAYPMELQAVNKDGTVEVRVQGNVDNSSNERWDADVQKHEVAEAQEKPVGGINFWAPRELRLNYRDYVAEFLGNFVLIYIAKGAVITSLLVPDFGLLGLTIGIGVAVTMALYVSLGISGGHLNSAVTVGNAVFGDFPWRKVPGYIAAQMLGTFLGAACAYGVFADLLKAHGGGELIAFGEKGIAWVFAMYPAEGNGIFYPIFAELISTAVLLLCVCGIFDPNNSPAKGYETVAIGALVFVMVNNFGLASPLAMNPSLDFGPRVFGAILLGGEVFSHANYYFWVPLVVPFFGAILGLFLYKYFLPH
Sequence of TbAQP2 L118M (Q6ZXT3 whole entry L118M): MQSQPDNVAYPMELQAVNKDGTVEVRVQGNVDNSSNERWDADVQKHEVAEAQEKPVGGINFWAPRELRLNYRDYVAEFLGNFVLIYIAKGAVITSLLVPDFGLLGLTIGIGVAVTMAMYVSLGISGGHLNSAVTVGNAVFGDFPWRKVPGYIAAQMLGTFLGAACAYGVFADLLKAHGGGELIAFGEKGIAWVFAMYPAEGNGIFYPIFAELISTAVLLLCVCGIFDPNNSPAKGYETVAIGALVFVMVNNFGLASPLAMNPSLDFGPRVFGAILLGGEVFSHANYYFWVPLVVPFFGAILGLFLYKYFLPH
Sequence of TbAQP3 (Q6ZXT2 whole entry): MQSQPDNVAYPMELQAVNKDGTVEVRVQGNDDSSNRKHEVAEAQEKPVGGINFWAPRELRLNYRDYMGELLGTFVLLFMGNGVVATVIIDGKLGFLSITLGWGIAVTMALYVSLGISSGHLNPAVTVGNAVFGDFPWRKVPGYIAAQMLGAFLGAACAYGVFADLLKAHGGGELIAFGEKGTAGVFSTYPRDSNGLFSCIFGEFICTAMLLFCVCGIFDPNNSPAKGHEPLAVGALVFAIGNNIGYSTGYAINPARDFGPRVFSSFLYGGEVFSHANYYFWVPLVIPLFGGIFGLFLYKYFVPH
Sequence of TbAQP2^I190T/W192G (Q6ZXT3 whole entry I190T/W192G): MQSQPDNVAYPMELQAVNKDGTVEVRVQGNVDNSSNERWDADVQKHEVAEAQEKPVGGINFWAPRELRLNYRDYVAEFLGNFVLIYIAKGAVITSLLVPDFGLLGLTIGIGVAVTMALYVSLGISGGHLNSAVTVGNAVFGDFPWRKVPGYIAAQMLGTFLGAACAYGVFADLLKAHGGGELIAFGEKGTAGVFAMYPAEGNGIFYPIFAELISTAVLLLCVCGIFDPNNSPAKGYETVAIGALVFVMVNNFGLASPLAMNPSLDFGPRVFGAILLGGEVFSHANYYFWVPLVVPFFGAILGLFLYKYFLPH
T2 sequence (Q6ZXT3 whole entry): as the sequence (Q6ZXT3 whole entry) above
Sequence of TbAQP3^W102I/R256L (Q6ZXT2 whole entry W102I/R256L): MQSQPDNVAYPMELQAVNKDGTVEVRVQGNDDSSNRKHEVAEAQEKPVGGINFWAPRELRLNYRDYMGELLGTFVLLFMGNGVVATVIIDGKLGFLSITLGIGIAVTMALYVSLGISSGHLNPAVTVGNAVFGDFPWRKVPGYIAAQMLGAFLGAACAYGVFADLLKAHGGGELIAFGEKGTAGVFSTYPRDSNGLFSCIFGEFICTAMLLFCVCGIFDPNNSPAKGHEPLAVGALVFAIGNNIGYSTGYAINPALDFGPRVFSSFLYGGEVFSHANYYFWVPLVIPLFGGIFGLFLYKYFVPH
Sequence of TbAQP2 L218M (Q6ZXT3 whole entry L218M): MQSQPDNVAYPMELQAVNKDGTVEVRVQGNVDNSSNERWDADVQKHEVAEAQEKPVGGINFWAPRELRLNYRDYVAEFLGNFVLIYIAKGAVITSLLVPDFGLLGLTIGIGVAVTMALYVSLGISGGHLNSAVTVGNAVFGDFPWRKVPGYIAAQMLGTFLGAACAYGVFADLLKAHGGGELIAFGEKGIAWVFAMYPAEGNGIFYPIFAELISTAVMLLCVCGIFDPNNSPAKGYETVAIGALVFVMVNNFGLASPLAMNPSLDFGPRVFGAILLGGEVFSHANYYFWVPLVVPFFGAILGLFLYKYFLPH
Sequence of TbAQP2^L84W/L118W (Q6ZXT3 whole entry L84W/L118W): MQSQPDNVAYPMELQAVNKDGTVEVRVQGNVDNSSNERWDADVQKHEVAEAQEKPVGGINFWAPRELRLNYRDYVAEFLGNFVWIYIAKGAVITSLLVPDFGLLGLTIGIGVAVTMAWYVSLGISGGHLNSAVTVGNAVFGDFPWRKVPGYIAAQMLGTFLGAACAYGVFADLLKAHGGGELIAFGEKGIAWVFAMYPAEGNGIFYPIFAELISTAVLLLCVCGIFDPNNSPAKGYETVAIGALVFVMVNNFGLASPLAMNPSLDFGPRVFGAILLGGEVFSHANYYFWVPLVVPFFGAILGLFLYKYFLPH
Sequence of TbAQP3^W102I/R256L/Y250L (Q6ZXT2 whole entry W102I/Y250L/R256L): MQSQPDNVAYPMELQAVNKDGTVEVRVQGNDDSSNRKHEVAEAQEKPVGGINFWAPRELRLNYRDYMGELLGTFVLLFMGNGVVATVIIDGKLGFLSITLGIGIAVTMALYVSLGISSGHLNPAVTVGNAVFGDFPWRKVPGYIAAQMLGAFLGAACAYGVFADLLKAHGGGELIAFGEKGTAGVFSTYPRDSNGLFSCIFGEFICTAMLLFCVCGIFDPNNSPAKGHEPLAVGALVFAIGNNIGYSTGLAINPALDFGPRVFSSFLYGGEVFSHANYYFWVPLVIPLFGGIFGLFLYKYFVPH
Sequence of TbAQP2 L84W (Q6ZXT3 whole entry L84W): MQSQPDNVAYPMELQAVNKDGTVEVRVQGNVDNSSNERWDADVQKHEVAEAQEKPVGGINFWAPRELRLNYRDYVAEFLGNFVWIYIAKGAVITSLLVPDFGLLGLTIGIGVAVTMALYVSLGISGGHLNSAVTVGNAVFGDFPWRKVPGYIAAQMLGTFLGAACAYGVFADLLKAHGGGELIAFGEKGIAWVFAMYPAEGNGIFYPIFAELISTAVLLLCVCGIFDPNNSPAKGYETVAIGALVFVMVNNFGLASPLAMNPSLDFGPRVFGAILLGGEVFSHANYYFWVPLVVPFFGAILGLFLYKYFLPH
Sequence of TbAQP2 L218W (Q6ZXT3 whole entry L218W): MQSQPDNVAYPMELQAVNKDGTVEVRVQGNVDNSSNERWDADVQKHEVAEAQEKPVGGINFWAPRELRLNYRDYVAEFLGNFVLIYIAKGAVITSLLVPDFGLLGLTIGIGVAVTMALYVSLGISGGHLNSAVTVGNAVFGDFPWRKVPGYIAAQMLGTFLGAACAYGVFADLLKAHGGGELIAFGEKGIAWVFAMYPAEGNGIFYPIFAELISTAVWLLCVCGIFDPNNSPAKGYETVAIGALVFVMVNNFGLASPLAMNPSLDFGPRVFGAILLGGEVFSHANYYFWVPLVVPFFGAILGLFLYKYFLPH

Which EC50 [1, 12] does the source give for `N=C(N)c1ccc(OCCCCCOc2ccc(C(=N)N)cc2)cc1` [Pentamidine] here?
The EC50 was 46.3 nM.

What about the EC50 [1, 13] of the same molecule?
Its EC50 is 52.4 nM.

What about the EC50 [1, 14] of the same molecule?
Its EC50 is 46.3 nM.

What about the EC50 [1, 15] of the same molecule?
Its EC50 is 40.8 nM and 45.7 nM.

What about the ΔG0 (TbAQP2/HAPT1 [2]) of the same molecule?
The ΔG0 was -10.2 kcal/mol.

And the “ΔG^0 (binding energy of substrate-transporter pair)” value (TbAQP2/HAPT1 [2])?
Its value is -10.2 kcal/mol.

And the “δ(ΔG0)” value (TbAQP2/HAPT1 [2])?
The value was 0 kcal/mol.

What about the Ki (TbAQP2/HAPT1 [2]; Ki) of the same molecule?
Its Ki is 36 ± 0.6 nM.

And the Ki (TbAQP2/HAPT1 [2]; Ki / affinity)?
Its Ki is 35 nM.

What about the “EC50, percent of AQP2/3 null EC50” value [3] of the same molecule?
The value was 0.08% and 0.0842% and 1.40% and 0.16%.

What about the EC50 [3, 12] of the same molecule?
Its EC50 is 0.84 nM.

And the EC50 [3, 16]?
The EC50 was 1.61 nM.

And the EC50 [3, 15]?
The EC50 was 1.5 nM.

And the “Pentamidine transport rate AVG” value (TbAQP2 L84W)?
The value was 0.0006628 pmol/10E7 cells/s.

What about the EC50 (tbaqp2 null (AQP2-KO)) of the same molecule?
The EC50 was 130 nM.

And the Pentamidine transport rate (TbAQP3)?
Its Pentamidine transport rate is 1.04E-04 pmol/10E7 cells/s.

What about the “Pentamidine transport rate, percent of TbAQP2WT control” value (TbAQP3) of the same molecule?
The value was 0.49%.

And the “Transport rate AVG” value (TbAQP3)?
Its value is 0.48.

And the EC50 [4, 16]?
Its EC50 is 0.43 nM.

What about the EC50 ([4]; read-out: EC50 AVG) of the same molecule?
Its EC50 is 0.43 nM.

And the Vmax (HAPT)?
The Vmax was 0.0044 ± 0.0004 pmol(10^7 cells)^−1 s^−1.

And the “Vmax for HAPT-mediated pentamidine uptake” value (HAPT)?
The value was 9.5 × 10^5 molecules/cell/h and 8.5 × 10^6 molecules/cell/h.

What about the “EC50, percent of AQP2/3 null EC50” value [5] of the same molecule?
The value was 0.50%.

What about the “Pentamidine transport rate AVG” value (TbAQP2 L218M) of the same molecule?
The value was 0.004612 pmol/10E7 cells/s.

And the “Effect on TbAQP2 turnover rate” value (3×HA tagged TbAQP2)?
The value was “identical turnover rates”.

And the EC50 [6, 16]?
Its EC50 is 0.63 nM.

And the EC50 ([6]; read-out: EC50 AVG)?
Its EC50 is 0.63 nM.

What about the “Pentamidine transport rate as percent of +AQP2-WT, AVG” value (TbAQP2^I190T/W192G) of the same molecule?
The value was 2.70%.

And the “Pentamidine transport rate, AVG” value (TbAQP2^I190T/W192G)?
The value was 0.0005659 pmol/10E7 cells/s.

And the “EC50 as percent of AQP2/3 null EC50, MEAN” value [7]?
Its value is 105.70%.

And the EC50 [8]?
The EC50 was 65.7 nM.

And the EC50 ([8]; Trypanosoma brucei)?
Its EC50 is 53.4 nM.

What about the “Pentamidine transport rate AVG” value (TbAQP2 L118M; n=3) of the same molecule?
Its value is 0.0006601 pmol/10E7 cells/s.

What about the Pentamidine transport rate (TbAQP2 L118M; single experiments) of the same molecule?
The Pentamidine transport rate was 0.000589 pmol/10E7 cells/s and 0.000736 pmol/10E7 cells/s and 0.0006552 pmol/10E7 cells/s.

What about the “Pentamidine transport rate AVG” value (TbAQP2^L84W/L118W) of the same molecule?
The value was 0.0002985 pmol/10E7 cells/s.

And the “pentamidine uptake rate, CRK+tet, AVERAGE” value (CRK12 RNAi cells; CRK12 RNAi induced (+tet), 4 experiments)?
Its value is 0.00587 pmol/1E7 cells/s-1.

What about the “pentamidine uptake rate, CRK+tet” value (CRK12 RNAi cells; CRK12 RNAi induced (+tet), single experiments) of the same molecule?
The value was 0.00804 pmol/1E7 cells/s-1 and 0.004193 pmol/1E7 cells/s-1 and 0.006636 pmol/1E7 cells/s-1 and 0.004619 pmol/1E7 cells/s-1.

What about the “pentamidine uptake rate, CRK-tet, AVERAGE” value (CRK12 RNAi cells; CRK12 RNAi not induced (-tet), 4 experiments) of the same molecule?
Its value is 0.00656 pmol/1E7 cells/s-1.

What about the EC50 [9, 12] of the same molecule?
The EC50 was 32 nM.

And the EC50 [9, 13]?
The EC50 was 34.5 nM.

And the EC50 [9, 14]?
Its EC50 is 32 nM.

And the EC50 [9, 15]?
The EC50 was 33.6 nM and 27.8 nM.

And the “Pentamidine transport rate AVG” value (TbAQP2 L218W)?
The value was 0.002093 pmol/10E7 cells/s.

And the Km (TbAQP2^I190T)?
The Km was 59.9 ± 9.1 µM.

What about the “Transport rate AVG” value (T. b. brucei 2T1) of the same molecule?
The value was 21.86.

What about the EC50 [10] of the same molecule?
The EC50 was 1.1 nM.

And the Pentamidine transport rate (TbAQP3^W102I/R256L)?
The Pentamidine transport rate was 1.51E-04 pmol/10E7 cells/s.

And the “Gibbs free energy of pentamidine/AQP2 interaction” value (TbAQP2/HAPT1 [11])?
Its value is -10 kcal/mol.

What about the Pentamidine transport rate (TbAQP3^W102I/R256L/Y250L) of the same molecule?
Its Pentamidine transport rate is 2.46E-04 pmol/10E7 cells/s.

What about the “EC50, percent of AQP2/3 null EC50” value (tbaqp2/tbaqp3 null cells) of the same molecule?
The value was 100.00%.

And the “EC50 as percent of AQP2/3 null EC50, MEAN” value (tbaqp2/tbaqp3 null cells)?
Its value is 100.00%.

What about the “EC50 as percent of AQP2/3 null EC50, single repeats” value (tbaqp2/tbaqp3 null cells) of the same molecule?
Its value is 100%.

And the EC50 (tbaqp2/tbaqp3 null cells; [12])?
Its EC50 is 66.3 nM.

What about the EC50 (tbaqp2/tbaqp3 null cells; [13]) of the same molecule?
Its EC50 is 69.3 nM.

What about the EC50 (tbaqp2/tbaqp3 null cells; [16]) of the same molecule?
The EC50 was 72.3 nM.

What about the EC50 (tbaqp2/tbaqp3 null cells; [15]) of the same molecule?
The EC50 was 52.1 nM and 77.6 nM and 77.5 nM and 68.9 nM and 70.5 nM.

Reference: PMC7473772 (eLife, 2020)
